The values below come from ChEMBL document CHEMBL4028801, “A multifactorial approach to hepatobiliary transporter assessment enables improved therapeutic compound development” (Toxicol Sci, 2013).

The term IC50 denotes the concentration at which inhibition is half-maximal. The AUC is concentration integrated over time. A low value points to low exposure.

For series [1], the target named is ATP-binding cassette sub-family C member 2 (Homo sapiens, UniProt Q92887). Put plainly: Inhibition of human MRP2 overexpressed in Sf9 cell membrane vesicles assessed as uptake of [3H]-estradiol-17beta-D-glucuronide in presence of ATP and GSH measured after 20 mins by membrane vesicle transport assay.
Series [2] has as its target ATP-binding cassette sub-family C member 3 (Homo sapiens, UniProt O15438). Description: Inhibition of human MRP3 overexpressed in Sf9 insect cell membrane vesicles assessed as uptake of [3H]-estradiol-17beta-D-glucuronide in presence of ATP and GSH measured after 10 mins by membrane vesicle transport assay. It counts as ADME, cell-based.
Series [3] has as its target T1, ATP-binding cassette sub-family C member 4 (Homo sapiens, UniProt O15439).
T1 sequence (O15439 whole entry): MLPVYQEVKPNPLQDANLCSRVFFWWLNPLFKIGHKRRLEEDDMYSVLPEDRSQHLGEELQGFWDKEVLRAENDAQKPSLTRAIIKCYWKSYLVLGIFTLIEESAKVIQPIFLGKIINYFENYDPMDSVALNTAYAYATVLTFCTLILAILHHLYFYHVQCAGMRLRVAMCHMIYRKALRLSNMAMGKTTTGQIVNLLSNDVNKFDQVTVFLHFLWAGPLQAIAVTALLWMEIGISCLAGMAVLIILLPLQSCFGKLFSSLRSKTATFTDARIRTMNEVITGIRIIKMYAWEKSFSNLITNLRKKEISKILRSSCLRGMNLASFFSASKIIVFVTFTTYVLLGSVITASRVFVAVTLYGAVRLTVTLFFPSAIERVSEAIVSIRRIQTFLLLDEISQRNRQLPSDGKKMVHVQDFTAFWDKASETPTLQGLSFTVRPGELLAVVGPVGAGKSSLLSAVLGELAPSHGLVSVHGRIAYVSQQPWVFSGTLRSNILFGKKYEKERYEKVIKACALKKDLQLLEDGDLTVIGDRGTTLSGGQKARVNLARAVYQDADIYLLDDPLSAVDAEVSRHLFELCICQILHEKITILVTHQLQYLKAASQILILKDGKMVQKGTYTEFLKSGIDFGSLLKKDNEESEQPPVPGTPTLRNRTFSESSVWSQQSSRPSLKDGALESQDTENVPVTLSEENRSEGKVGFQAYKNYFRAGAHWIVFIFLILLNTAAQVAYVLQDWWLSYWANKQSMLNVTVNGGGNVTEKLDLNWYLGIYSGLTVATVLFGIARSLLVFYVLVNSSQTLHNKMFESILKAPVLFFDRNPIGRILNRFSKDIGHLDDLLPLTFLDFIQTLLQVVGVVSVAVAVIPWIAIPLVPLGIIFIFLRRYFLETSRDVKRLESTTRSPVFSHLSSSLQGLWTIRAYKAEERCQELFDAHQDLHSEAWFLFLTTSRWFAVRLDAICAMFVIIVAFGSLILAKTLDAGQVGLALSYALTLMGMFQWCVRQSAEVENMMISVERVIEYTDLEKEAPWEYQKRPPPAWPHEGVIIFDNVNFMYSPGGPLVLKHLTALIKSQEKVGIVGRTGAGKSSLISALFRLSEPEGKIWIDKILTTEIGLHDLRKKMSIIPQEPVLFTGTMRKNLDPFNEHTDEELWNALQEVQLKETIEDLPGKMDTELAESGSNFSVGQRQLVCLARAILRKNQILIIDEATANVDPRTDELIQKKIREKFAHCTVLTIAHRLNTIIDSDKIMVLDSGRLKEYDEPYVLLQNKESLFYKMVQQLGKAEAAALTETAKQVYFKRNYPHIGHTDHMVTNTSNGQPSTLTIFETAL
Description: Inhibition of human MRP4 overexpressed in Sf9 cell membrane vesicles assessed as uptake of [3H]-estradiol-17beta-D-glucuronide in presence of ATP and GSH measured after 20 mins by membrane vesicle transport assay. It is filed as ADME, cell-based.

A short description of series [4]: Drug concentration at steady state in human at 200 to 1200 mg, po QD after 24 hrs. To be noted: in vivo.
A short description of another series: clinical. To be noted: human, in vivo, po.
In a further series the target is Bile salt export pump (Homo sapiens, UniProt O95342). Put plainly: Inhibition of human BSEP overexpressed in Sf9 cell membrane vesicles assessed as uptake of [3H]-taurocholate in presence of ATP measured after 15 to 20 mins by membrane vesicle transport assay. It counts as ADME, cell-based.
Series [5] can be described thus: AUC in human at 62.5 to 125 mg, po BID after 12 hrs. It is filed as ADME, organism-based. To be noted: in vivo.
A further series concerns Homo sapiens. Description: Drug concentration at steady state in human at 62.5 to 125 mg, po BID after 12 hrs. To be noted: in vivo. It counts as ADME, organism-based.
A short description of series [6]: Ratio of drug concentration at steady state in human at 62.5 to 125 mg, po BID after 12 hrs to IC50 for human BSEP overexpressed in Sf9 insect cells. It is filed as ADME, organism-based. To be noted: in vivo.
A short description of series [7]: Ratio of drug concentration at steady state in human at 62.5 to 125 mg, po BID after 12 hrs to IC50 for human MRP3 overexpressed in Sf9 insect cells. It counts as ADME, organism-based. To be noted: in vivo.
Series [8] is described as follows: Ratio of drug concentration at steady state in human at 62.5 to 125 mg, po BID after 12 hrs to IC50 for human MRP4 overexpressed in Sf9 insect cells. It counts as ADME, organism-based. To be noted: in vivo.
Series [9] in a line: AUC in human at 10 to 20 mg, po QID after 6 hrs. It counts as ADME, organism-based. To be noted: in vivo.
The nature of series [10]: Drug concentration at steady state in human at 10 to 20 mg, po QID after 6 hrs. It counts as ADME, organism-based. To be noted: in vivo, read-out: Css.
A short description of series [11]: Ratio of drug concentration at steady state in human at 10 to 20 mg, po QID after 6 hrs to IC50 for human BSEP overexpressed in Sf9 insect cells. It is filed as ADME, organism-based. To be noted: in vivo.
A short description of series [12]: AUC in human at 40 to 80 mg, po TID after 8 hrs. It is filed as ADME, organism-based. To be noted: in vivo.
A short description of series [13]: Drug concentration at steady state in human at 40 to 80 mg, po TID after 8 hrs. It is filed as ADME, organism-based. To be noted: in vivo, read-out: Css.
Series [14] in a line: Ratio of drug concentration at steady state in human at 40 to 80 mg, po TID after 8 hrs to IC50 for human BSEP overexpressed in Sf9 insect cells. It counts as ADME, organism-based. To be noted: in vivo.
A short description of series [15]: Ratio of drug concentration at steady state in human at 40 to 80 mg, po TID after 8 hrs to IC50 for human MRP4 overexpressed in Sf9 insect cells. It counts as ADME, organism-based. To be noted: in vivo.
A short description of series [16]: AUC in human at 200 mg, po Q3h measured after 3 hrs. It is filed as ADME, organism-based. Details: dose 200 mg, time < 3 hr, route oral. To be noted: in vivo.
The nature of series [17]: Drug concentration at steady state in human at 200 mg, po Q3h measured after 3 hrs. It is filed as ADME, organism-based. To be noted: in vivo, read-out: Css.
Series [18] is described as follows: Ratio of drug concentration at steady state in human at 200 mg, po Q3h measured after 3 hrs to IC50 for human BSEP overexpressed in Sf9 insect cells. It is filed as ADME, organism-based. To be noted: in vivo.
Series [19] is described as follows: Ratio of drug concentration at steady state in human at 200 mg, po Q3h measured after 3 hrs to IC50 for human MRP3 overexpressed in Sf9 insect cells. It counts as ADME, organism-based. To be noted: in vivo.
Series [20] in a line: Ratio of drug concentration at steady state in human at 200 mg, po Q3h measured after 3 hrs to IC50 for human MRP4 overexpressed in Sf9 insect cells. It is filed as ADME, organism-based. To be noted: in vivo.

A value given as a limit tells only on which side of the number the result lay.

Sequence of ATP-binding cassette sub-family C member 3 (O15438 whole entry): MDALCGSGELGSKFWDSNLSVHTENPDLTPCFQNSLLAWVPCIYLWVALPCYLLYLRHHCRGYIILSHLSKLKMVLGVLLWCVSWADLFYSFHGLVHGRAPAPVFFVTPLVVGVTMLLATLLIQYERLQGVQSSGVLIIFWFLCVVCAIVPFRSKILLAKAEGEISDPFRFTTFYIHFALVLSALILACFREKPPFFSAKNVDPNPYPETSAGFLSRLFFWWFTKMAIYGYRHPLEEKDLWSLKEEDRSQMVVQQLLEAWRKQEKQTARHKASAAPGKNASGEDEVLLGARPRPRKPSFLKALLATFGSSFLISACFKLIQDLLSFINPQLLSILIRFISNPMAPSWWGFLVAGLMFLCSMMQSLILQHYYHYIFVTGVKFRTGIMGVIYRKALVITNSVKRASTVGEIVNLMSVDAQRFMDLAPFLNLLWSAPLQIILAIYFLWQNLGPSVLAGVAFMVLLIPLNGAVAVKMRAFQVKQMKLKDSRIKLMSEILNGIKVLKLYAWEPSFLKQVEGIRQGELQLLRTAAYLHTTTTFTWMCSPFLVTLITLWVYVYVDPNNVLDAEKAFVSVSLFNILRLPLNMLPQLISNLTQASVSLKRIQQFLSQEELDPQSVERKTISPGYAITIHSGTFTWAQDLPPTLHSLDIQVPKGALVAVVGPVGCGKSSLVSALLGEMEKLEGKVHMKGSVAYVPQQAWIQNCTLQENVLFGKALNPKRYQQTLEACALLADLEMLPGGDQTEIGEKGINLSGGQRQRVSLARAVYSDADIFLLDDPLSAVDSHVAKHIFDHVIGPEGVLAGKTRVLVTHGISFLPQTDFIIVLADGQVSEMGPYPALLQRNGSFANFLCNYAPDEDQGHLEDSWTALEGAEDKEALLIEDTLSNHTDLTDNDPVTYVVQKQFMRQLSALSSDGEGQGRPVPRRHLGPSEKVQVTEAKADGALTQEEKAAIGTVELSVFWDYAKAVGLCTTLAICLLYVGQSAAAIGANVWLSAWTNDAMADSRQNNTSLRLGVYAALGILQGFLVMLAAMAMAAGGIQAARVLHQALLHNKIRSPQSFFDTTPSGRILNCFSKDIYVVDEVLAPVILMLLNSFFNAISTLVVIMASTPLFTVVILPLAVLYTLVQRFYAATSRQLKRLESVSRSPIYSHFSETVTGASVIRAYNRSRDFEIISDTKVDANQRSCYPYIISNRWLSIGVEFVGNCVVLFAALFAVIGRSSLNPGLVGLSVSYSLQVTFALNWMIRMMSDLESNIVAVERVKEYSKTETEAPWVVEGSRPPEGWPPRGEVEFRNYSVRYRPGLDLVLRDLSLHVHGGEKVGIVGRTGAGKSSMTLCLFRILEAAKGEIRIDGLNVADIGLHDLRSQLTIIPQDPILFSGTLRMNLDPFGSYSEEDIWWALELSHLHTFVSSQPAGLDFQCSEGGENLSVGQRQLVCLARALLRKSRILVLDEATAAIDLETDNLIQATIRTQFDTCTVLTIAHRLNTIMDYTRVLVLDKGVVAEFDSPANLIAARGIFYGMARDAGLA
Sequence of Bile salt export pump (O95342 whole entry): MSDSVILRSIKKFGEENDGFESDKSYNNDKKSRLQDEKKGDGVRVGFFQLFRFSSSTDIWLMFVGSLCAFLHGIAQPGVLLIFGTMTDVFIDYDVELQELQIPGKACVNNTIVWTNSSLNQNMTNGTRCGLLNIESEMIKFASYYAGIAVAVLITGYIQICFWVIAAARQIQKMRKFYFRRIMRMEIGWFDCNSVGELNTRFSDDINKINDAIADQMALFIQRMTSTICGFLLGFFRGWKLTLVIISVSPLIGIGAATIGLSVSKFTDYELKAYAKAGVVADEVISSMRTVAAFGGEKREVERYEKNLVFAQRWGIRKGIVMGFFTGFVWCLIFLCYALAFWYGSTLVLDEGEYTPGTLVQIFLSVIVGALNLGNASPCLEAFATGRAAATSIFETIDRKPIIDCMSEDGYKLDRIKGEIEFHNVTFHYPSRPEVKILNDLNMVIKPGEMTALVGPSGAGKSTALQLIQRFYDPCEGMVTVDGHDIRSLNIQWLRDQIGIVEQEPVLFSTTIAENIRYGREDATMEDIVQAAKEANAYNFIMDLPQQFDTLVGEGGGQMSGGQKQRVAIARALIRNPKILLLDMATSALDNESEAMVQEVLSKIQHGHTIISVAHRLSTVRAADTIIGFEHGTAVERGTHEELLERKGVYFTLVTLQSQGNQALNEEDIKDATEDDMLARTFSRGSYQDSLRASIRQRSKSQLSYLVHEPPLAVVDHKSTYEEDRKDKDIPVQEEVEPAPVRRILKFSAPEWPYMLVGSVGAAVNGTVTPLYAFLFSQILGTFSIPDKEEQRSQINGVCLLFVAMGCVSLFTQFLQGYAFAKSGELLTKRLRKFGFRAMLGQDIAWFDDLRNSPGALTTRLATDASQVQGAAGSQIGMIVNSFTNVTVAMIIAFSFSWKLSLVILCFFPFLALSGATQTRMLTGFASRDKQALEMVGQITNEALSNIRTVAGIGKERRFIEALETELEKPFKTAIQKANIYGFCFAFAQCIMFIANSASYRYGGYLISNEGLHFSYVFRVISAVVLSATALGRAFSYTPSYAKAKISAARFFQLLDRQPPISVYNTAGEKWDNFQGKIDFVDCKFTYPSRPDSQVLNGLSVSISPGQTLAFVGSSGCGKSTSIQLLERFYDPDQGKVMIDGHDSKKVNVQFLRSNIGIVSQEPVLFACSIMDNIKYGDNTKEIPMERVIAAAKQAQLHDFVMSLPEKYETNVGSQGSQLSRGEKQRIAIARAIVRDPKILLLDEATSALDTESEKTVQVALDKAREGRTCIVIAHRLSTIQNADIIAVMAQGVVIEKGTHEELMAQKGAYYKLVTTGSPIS
Sequence of ATP-binding cassette sub-family C member 2 (Q92887 whole entry): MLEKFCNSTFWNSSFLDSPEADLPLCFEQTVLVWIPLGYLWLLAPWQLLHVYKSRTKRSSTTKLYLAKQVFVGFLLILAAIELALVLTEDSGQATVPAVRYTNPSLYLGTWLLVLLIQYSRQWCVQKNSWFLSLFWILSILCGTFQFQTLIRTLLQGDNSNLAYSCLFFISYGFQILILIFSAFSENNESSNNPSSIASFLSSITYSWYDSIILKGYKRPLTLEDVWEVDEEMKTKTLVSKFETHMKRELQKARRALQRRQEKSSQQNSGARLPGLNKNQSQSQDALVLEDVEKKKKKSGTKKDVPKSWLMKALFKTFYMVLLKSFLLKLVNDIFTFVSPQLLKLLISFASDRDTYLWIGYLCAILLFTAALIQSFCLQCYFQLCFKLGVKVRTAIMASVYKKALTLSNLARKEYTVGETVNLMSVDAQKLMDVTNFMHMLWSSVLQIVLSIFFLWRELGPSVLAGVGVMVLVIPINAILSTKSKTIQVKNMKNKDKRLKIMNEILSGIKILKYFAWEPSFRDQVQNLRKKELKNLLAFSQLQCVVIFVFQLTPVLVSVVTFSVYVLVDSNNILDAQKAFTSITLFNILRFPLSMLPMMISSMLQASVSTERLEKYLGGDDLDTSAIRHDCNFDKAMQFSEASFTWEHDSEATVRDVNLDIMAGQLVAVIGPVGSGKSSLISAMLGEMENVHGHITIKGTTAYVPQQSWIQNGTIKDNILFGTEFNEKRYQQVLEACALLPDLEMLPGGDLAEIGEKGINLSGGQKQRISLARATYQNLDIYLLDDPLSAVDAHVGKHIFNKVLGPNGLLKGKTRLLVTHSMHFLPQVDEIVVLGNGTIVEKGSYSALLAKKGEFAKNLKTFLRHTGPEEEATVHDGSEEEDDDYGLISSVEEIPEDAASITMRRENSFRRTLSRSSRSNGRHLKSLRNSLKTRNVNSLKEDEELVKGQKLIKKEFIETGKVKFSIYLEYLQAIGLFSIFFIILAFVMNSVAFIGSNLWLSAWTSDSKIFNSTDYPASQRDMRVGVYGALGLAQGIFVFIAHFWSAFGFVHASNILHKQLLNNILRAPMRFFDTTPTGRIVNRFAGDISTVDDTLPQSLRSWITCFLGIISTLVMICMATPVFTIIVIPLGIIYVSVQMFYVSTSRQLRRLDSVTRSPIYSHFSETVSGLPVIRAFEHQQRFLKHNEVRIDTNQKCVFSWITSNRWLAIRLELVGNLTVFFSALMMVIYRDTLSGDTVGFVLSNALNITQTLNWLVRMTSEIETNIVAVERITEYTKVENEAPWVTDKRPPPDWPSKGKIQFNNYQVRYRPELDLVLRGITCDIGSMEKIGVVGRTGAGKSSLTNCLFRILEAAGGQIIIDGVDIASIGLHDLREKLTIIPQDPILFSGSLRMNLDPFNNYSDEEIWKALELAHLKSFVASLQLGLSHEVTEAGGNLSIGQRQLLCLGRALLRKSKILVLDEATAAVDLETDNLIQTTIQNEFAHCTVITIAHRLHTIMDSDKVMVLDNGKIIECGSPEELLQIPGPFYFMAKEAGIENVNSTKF

Take `CCCCc1oc2ccccc2c1C(=O)c1cc(I)c(OCCN(CC)CC)c(I)c1` [AMIODARONE]: the 50% inhibitory concentration (IC50) in [1], in [2] and in [3] was > 133 µM in each case. This molecule also returned a concentration at 24 h in [4] of 1360 nM. For the same molecule, the area under the curve (AUC) at 24 h in the series “clinical” worked out at 32.7 µM·h.

As for `COc1ccccc1Oc1c(NS(=O)(=O)c2ccc(C(C)(C)C)cc2)nc(-c2ncccn2)nc1OCCO` [BOSENTAN], the half-inhibitory concentration (IC50) is 23 µM on Bile salt export pump, 42 µM in series [2] and 22 µM in series [3]. Moreover, the exposure (AUC) at 12 h in [5] worked out at 16.2 µM·h. This molecule returned a Css in the series with Homo sapiens of 1347 nM. Moreover, the Ratio in [6] is 0.059; in series [7], 0.032; in series [8], 0.061.

With `COc1cc(N)c(Cl)cc1C(=O)NC1CCN(CCCOc2ccc(F)cc2)CC1OC.O` (stereo unspecified) [CISAPRIDE MONOHYDRATE], the IC50 on Bile salt export pump is 22 µM; in series [1], > 133 µM; in [2], > 133 µM; in [3] it was > 133 µM. This molecule also gave an exposure (AUC) at 6 h in series [9] of 4.78 µM·h. Besides, in series [10], the concentration at 6 h was 797 nM. For the same molecule, the Ratio in series [11] was found to be 0.036.

As for `CCOc1ccc(/C=C2\NCCc3cc(OCC)c(OCC)cc32)cc1OCC` [DROTAVERINE], the IC50 is > 133 µM in [1], > 133 µM in series [2] and 24.5 µM in series [3]. In series [12], this molecule gave an area under the curve (AUC) at 8 h of 8.18 µM·h. Also, the concentration at 8 h in [13] stood at 1020 nM. Further, the Ratio was 0.028 in [14] and 0.042 in [15].

In the case of `CCN(CC)C(=O)/C(C#N)=C/c1cc(O)c(O)c([N+](=O)[O-])c1` [ENTACAPONE], the half-inhibitory concentration (IC50) was 55.6 µM on Bile salt export pump, > 133 µM in series [1], 35.1 µM in series [2] and 6.8 µM in series [3]. Further, in [16], the AUC at 3 h came out at 5.29 µM·h. The concentration at 3 h in [17] was determined as 1760 nM. Also, the Ratio in series [18] came to 0.032; in [19] it was 0.05; in series [20], 0.259.
